Experimental data taken from PMC10180428, “α-Glucosidase Inhibitors from Two Mangrove-Derived Actinomycetes” (Molecules, 2023).
Read-outs that look alike come from different tables or passages of the source.

What was measured:
α-Glucosidase (AGS) [1] = biological target: T1, α-Glucosidase (AGS) (Saccharomyces cerevisiae, UniProt P53341); test: Inhibition kinetics analysis (Lineweaver–Burk plots and secondary plots); assay type: biochemical; conditions: for inhibition type against AGS: Lineweaver–Burk plots
T1 sequence (P53341 whole entry): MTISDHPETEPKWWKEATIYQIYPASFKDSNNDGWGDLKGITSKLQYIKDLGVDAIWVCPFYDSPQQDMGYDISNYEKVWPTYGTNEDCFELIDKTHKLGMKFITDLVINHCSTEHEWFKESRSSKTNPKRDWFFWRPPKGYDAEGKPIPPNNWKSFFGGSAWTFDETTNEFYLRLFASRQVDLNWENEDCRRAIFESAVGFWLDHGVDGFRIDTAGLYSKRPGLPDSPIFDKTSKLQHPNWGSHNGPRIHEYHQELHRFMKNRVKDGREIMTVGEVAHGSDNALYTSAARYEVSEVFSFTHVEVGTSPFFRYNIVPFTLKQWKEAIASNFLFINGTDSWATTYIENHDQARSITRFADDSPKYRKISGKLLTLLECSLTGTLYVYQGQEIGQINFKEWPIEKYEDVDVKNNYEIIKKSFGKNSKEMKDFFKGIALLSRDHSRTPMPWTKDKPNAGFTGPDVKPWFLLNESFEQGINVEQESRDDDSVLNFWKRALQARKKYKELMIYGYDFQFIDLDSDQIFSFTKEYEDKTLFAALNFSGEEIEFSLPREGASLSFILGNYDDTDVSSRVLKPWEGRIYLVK
Experimental: Although several 2,5-DKP containing cyclodipeptides have been reported to inhibit the activity of AGS to different extents, little is known on the inhibition kinetics of these inhibitors. Herein, the inhibition kinetic mechanisms of 3, 8, 9, 11, 14, 16, and 17 against AGS were analyzed using the Lineweaver–Burk plots. The inhibition constants Ki and Ki’ of the inhibitors were calculated by secondary plots of “slope versus [I]” and “Y-intercept versus [I]”, respectively. […] This postulation was reinforced by the varied Km/Vmax values which were not in accordance with uncompetitive inhibition. However, the replots of the slope and y-intercept versus the concentration of 14 and 17 were not linearly fitted, which limited the application of Equations (3) and (4). […] It was interesting that seven cyclodipeptide congeners tended to inhibit the activity of AGS in four different manners, which was proposed to be caused by different substitutions on the 2,5-DKP moiety.
The mode of inhibition was determined by the Lineweaver–Burk plot using GraphPad Prism 8.0 software. The Km and Vmax values were obtained from the slope and y-axis intercept of the Lineweaver–Burk plot based on Equations (1) and (2):(1) Vmax=1/Y-intercept (2) Km=slope× Vmax
The Ki and Ki’ values were calculated by secondary plotting of the slope and y-intercept on the Lineweaver–Burk plot versus the inhibitor [I] based on Equations (3) and (4):(3) Slope=Km/Vmax+Km[I]/VmaxKi (4) Y-intercept=1/Vmax+[I]/VmaxKi^′

α-Glucosidase (AGS) [2] = biological target: T1, α-Glucosidase (AGS); test: biochemical; conditions: read-out: AGS inhibitory activity IC50
Experimental: The AGS inhibitory activity was evaluated following the methods reported in the literature.

[3] = In vitro cytotoxicity MTT assay; assay type: cell-based; conditions: human
Experimental: To preliminarily evaluate the safety of the AGS inhibitors, the in vitro cytotoxicity of 3, 8, 9, 11, 14, 16, and 17 toward human normal hepatocyte (LO2) cells was tested by MTT assay. […] Since cancer and diabetes are linked, these compounds need to be evaluated for cytotoxicity against a panel of cancer cell lines to assess their safety profile at least in vitro in future studies.
The LO2 cell line was cultured in a 1640 medium supplemented with 10% fetal bovine serum, 100 U/mL of penicillin, and 0.1 mg/mL of streptomycin in a humidified incubator with a 5% CO2 atmosphere at 37 °C. The cells were seeded in 96-well plates at a density of 3 × 10^3 cells per well. After 12 h, the medium in the wells was replaced by 100 µL of fresh medium containing drugs of six different concentrations. After incubation for another 48 h, the medium was removed and the fresh medium containing 10 µL of MTT (5 mg/mL) were added to each well and incubated for 4 h. Then, the medium was replaced by 100 µL of DMSO to dissolve the formazan crystals. OD570 was detected on a microplate reader. Parallel triplicate replication was performed for each dose, and the IC50 values were calculated.

[4] = inhibitor concentration 0.04 mM
[5] = inhibitor concentration 0.06 mM
[6] = inhibitor concentration 0.08 mM
[7] = secondary plot of Y-intercept versus [I], binding to AGS-substrate complex, read-out: Ki
[8] = inhibitor concentration 0.05 mM
[9] = inhibitor concentration 0.07 mM
[10] = inhibitor concentration 0.09 mM
[11] = inhibitor concentration 0.10 mM

Row | SMILES | inhibition type against AGS (α-Glucosidase (AGS) [1]) | Vmax (α-Glucosidase (AGS) [1]; [4]) [µM/min] | Vmax (α-Glucosidase (AGS) [1]; [5]) [µM/min] | Vmax (α-Glucosidase (AGS) [1]; [6]) [µM/min] | Ki (α-Glucosidase (AGS) [1]; [7]) [µM] | Ki (α-Glucosidase (AGS) [1]; secondary plot of slope versus [I], binding to free AGS, read-out: Ki) [µM] | IC50 (α-Glucosidase (AGS) [2]) [µM] | IC50 at 48 h [3] [µM] | Ki (α-Glucosidase (AGS) [1]) [µM] | Vmax (α-Glucosidase (AGS) [1]; inhibitor concentration 0.02 mM) [µM/min] | Vmax (α-Glucosidase (AGS) [1]; inhibitor concentration 0.03 mM) [µM/min] | IC50 at 48 h ([3]; LO2 cells (human normal hepatocyte cell line), MTT, 48 h incubation, read-out: Cytotoxicity IC50 against LO2 cells) [µM] | Vmax (α-Glucosidase (AGS) [1]; [8]) [µM/min] | Vmax (α-Glucosidase (AGS) [1]; inhibitor concentration 0.20 mM) [µM/min] | Vmax (α-Glucosidase (AGS) [1]; [9]) [µM/min] | Vmax (α-Glucosidase (AGS) [1]; [10]) [µM/min] | Vmax (α-Glucosidase (AGS) [1]; [11]) [µM/min]
1 | COC1CCC=C(C)C(=O)Nc2cc(O)cc(c2)CC(C)CC(OC)C(O)C(C)C=C(C)C1OC(N)=O (stereo not shown) [Compound 3, autolytimycin] | non-competitive inhibitors | 0.86 ± 0.03 | 0.67 ± 0.04 | 0.46 ± 0.03 | 53.10 | 49.2 | 35.8 ± 0.4 | > 100 | – | – | – | – | – | – | – | – | –
2 | O=C1N[C@@H](Cc2c[nH]c3ccccc23)C(=O)N2CCC[C@@H]12 [Compound 8, cyclo(L-Pro-L-Trp)] | non-competitive inhibitors | – | – | 0.41 ± 0.03 | 46.28 | – | 53.8 ± 1.88 | – | 43.9 | 0.85 ± 0.05 | 0.66 ± 0.03 | > 100 | – | – | – | – | –
3 | O=C1N[C@@H](Cc2c[nH]c3ccccc23)C(=O)N[C@H]1CO [Compound 9, cyclo(L-Ser-L-Trp)] | mixed-type manner | – | – | 1.11 ± 0.14 | 238.78 | – | 164 ± 15.5 | > 100 | 149 | – | – | – | 1.33 ± 0.17 | 0.89 ± 0.22 | – | – | –
4 | CC[C@H](C)[C@@H]1NC(=O)[C@H](Cc2ccc(O)cc2)NC1=O [Compound 11, cyclo(L-Ile-L-Tyr)] | mixed-type manner | – | 0.98 ± 0.05 | – | 531.53 | – | 101 ± 2.52 | > 100 | 95.5 | – | – | – | – | – | 0.94 ± 0.02 | 0.90 ± 0.05 | –
5 | O=C1NC(Cc2ccccc2)C(=O)NC1CO [Compound 14, cyclo(L-Ser-L-Phe)] | competitive inhibitor | 0.81 ± 0.06 | – | – | – | – | 62.2 ± 0.11 | > 100 | – | – | – | – | – | – | – | 0.76 ± 0.04 | 0.83 ± 0.18
6 | CC[C@H](C)[C@@H]1NC(=O)[C@H](CC(C)C)NC1=O [Compound 16, cyclo(L-Leu-L-Ile)] | mixed-type manner | – | – | 0.86 ± 0.11 | 78.89 | – | 74 ± 1.25 | > 100 | 59.8 | – | – | – | 1.07 ± 0.13 | – | – | – | 0.74 ± 0.07
7 | C[C@@H]1NC(=O)[C@@H]2CCCN2C1=O [Compound 17, cyclo(L-Ala-L-Pro)] | non-competitive and uncompetitive mixed-type of inhibition | – | 0.79 ± 0.02 | – | – | – | 56.75 ± 0.32 | > 100 | – | – | – | – | – | – | 0.66 ± 0.03 | 0.47 ± 0.01 | –
